Reference: patent US20240246946A1, “MODULATORS OF TREX1” (Constellation Pharmaceuticals, Inc., priority 2021, published 2024)

Experiments:
full length human TREX1 = biological target: T1, full length human TREX1 (Homo sapiens, UniProt Q9NSU2); assay: hTREX1 Biochemical Assay (fluorescence, dsDNA substrate degradation); conditions: biochemical, read-out: hTREX1 IC50
T1 construct: N-terminally His-Tev tagged full length human TREX1; made in house; host or cells: E. coli
T1 sequence (Q9NSU2 1-314): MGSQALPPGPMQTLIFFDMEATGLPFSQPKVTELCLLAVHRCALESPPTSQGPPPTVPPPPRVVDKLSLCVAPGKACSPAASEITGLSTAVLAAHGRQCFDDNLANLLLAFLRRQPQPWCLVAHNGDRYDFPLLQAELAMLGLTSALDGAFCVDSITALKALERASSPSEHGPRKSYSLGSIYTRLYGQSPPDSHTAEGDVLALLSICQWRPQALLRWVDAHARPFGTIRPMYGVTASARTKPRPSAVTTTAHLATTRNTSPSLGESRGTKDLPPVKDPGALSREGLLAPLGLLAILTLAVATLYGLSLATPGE
Summary of the method: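 Cleavage of 60 nM TEX615/quencher-labelled dsDNA in pH 7.4 Tris buffer with 5 mM MgCl2, 1.0% DMSO, run 18 hours at 25° C, EDTA-quenched; fluorescence read-out.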

full length mouse TREX1 = biological target: T2, full length mouse TREX1 (Mus musculus, UniProt Q91XB0); assay: mTREX1 Biochemical Assay (fluorescence, dsDNA substrate degradation); conditions: biochemical, read-out: mTREX1 IC50
T2 construct: N-terminally His-Tev tagged full length mouse TREX1; made in house; host or cells: E. coli
T2 sequence (Q91XB0 1-314): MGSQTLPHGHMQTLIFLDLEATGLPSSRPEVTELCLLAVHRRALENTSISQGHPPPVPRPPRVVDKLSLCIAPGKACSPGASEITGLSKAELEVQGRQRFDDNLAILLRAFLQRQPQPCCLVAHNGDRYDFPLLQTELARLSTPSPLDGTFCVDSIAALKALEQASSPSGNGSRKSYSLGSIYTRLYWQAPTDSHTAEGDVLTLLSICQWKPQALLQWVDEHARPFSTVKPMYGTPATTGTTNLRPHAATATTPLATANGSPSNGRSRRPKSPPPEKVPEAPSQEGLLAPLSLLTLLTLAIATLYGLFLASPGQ
Summary of the method: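 Reaction run 18 h at 25° C. with 60 nM TEX615/quencher-labelled dsDNA and 6 pM mouse TREX1 in Tris buffer (pH 7.4, 5 mM MgCl2, 1.0% DMSO), enzyme having sat 4 h with compound across 10 concentrations. EDTA quench; substrate degradation measured as fluorescence increase.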

Structure (SMILES) | IC50 (full length human TREX1) [nM] | IC50 (full length mouse TREX1) [nM]
CC(c1nc(C(=O)Nc2cnoc2)c(O)c(=O)n1C)C(c1cnn(C)c1)c1ccc(Cl)cc1C#N (single isomer, unassigned) [Example 27 D2E2] | > 10 | > 10
CCn1cc(C(c2ccccc2C#N)C(C)c2nc(C(=O)Nc3cnoc3)c(O)c(=O)n2C)cn1 (single isomer, unassigned) [Example 13 D2E2] | > 10 | > 10
Cc1nn(C)cc1C(c1cc(F)ccc1Cl)C(C)c1nc(C(=O)Nc2cnoc2)c(O)c(=O)n1C (single isomer, unassigned) [Example 62 D1E1] | > 10 | > 10
CC(c1nc(C(=O)Nc2cnoc2)c(O)c(=O)n1C)C(c1cnn(CC2CC2)c1)c1ccccc1C#N (single isomer, unassigned) [Example 23 D2E1] | > 10 | > 10
CC(c1nc(C(=O)Nc2cnoc2)c(O)c(=O)n1C)C(c1cnn(C)c1)c1cc(Cl)ccc1C#N (single isomer, unassigned) [Example 26 D1E1] | > 10 | > 10
CC(c1nc(C(=O)Nc2cnoc2)c(O)c(=O)n1C)C(c1cnn(CCN2CCNCC2)c1)c1ccccc1C#N (single isomer, unassigned) [Example 31 D1E2] | > 10 | > 10
CC(c1nc(C(=O)Nc2cnoc2)c(O)c(=O)n1C)C(c1cnn(C(F)F)c1)c1ccccc1C#N (single isomer, unassigned) [Example 38 D1E2] | > 10 | > 10
Cc1nn(C)cc1C(c1ccc(F)cc1C#N)C(C)c1nc(C(=O)Nc2cnoc2)c(O)c(=O)n1C (single isomer, unassigned) [Example 56 D2E2] | > 10 | > 10
Cc1c(C(c2ccccc2C#N)C(C)c2nc(C(=O)Nc3cnoc3)c(O)c(=O)n2C)cnn1C (single isomer, unassigned) [Example 4 D2E1] | > 10 | > 10
CC(c1nc(C(=O)Nc2cnoc2)c(O)c(=O)n1C)C(c1cnn(C)c1)c1cc(F)c(F)cc1Cl (single isomer, unassigned) [Example 28 D2E1] | > 10 | > 10
COCCn1cc(C(c2cc(F)c(F)cc2Cl)C(C)c2nc(C(=O)Nc3cnoc3)c(O)c(=O)n2C)cn1 (single isomer, unassigned) [Example 73 D1E2] | > 10 | > 10
CCn1cc(C(c2cc(F)c(F)cc2Cl)C(C)c2nc(C(=O)Nc3cnoc3)c(O)c(=O)n2C)cn1 (single isomer, unassigned) [Example 72 D2E2] | > 10 | > 10
CC(c1nc(C(=O)Nc2cnoc2)c(O)c(=O)n1C)C(c1cnn(CCN2CCN(C)CC2)c1)c1ccccc1C#N (single isomer, unassigned) [Example 32 D2E2] | > 10 | > 10
Cc1nn(C)cc1C(c1ccccc1C#N)C(c1nc(C(=O)Nc2cnoc2)c(O)c(=O)n1C)C(F)(F)F (single isomer, unassigned) [Example 41 D1E1] | > 10 | > 10
CC(c1nc(C(=O)Nc2cnoc2)c(O)c(=O)n1C)C(c1cnn(C)c1)c1ccccc1C#N (single isomer, unassigned) [Example 2 D2E1] | > 10 | > 10
COCCCn1cc(C(c2ccccc2C#N)C(C)c2nc(C(=O)Nc3cnoc3)c(O)c(=O)n2C)cn1 (single isomer, unassigned) [Example 24 D1E2] | > 10 | > 10
COCCn1ncc(C(c2ccccc2C#N)C(C)c2nc(C(=O)Nc3cnoc3)c(O)c(=O)n2C)c1C (single isomer, unassigned) [Example 69 D2E1] | > 10 | > 10
CC(c1nc(C(=O)Nc2cnoc2)c(O)c(=O)n1C)C(c1cnn(C)c1)c1ccc(F)cc1C#N (single isomer, unassigned) [Example 15 D1E2] | > 10 | > 10
CC(c1nc(C(=O)Nc2cnoc2)c(O)c(=O)n1C)C(c1cnn(CCN(C)C)c1)c1ccccc1C#N (single isomer, unassigned) [Example 33 D2E1] | > 10 | > 10
